In a melting point compilation (Tetko et al.; mined from patent text by program, amines drawn as free bases though some values may be those of a salt):

Compound | melting point [°C]
CON=Cc1cc(N2C(=O)C3=C(CCCC3)C2=O)c(Cl)cc1Cl | 122 to 124
CCOC(=NC(=O)Nc1ccc(Cl)cc1)N1Cc2ccccc2-c2ccccc2C1 | 154 to 156
CC(=NNc1ccc(Cl)c2c1CC(C)O2)C(=O)O (stereo not drawn) | 155 to 157
CC(C)(C)OC(=O)NCC(=O)Oc1cccc(-c2cn3c(n2)sc2ccccc23)c1 | 150
Cc1cc(-c2ncn3c(C(F)(F)F)cc(-c4ccc(C(F)(F)F)cc4)nc23)ccn1 | 257
Nc1ccc2c(c1)CC(NS(=O)(=O)c1ccc(Cl)cc1)C2 (stereo not drawn) | 145 to 147
CCc1noc(-c2cc3c4cc(S(=O)(=O)N(C)C)ccc4n(CCCCl)c3cn2)n1 | 223 to 224
Cc1c(C)c2c(c(C)c1OC(=O)c1ccccc1)SC(CCCOC(=O)c1ccccc1)O2 (stereo not drawn) | 114 to 116
C=CCn1c(=O)c([N+](=O)[O-])c(O)c2ccccc21 | 125 to 127
C[C@@H](NC(=O)[C@@H](NCc1nccn1C)C(C)(C)C)C(C)(C)C | 131 to 132
CC(C(=O)O)C1CCC(C)(CCC2(C)C(C)CCC3(C)C(C)(C)CCCC23O)OO1 (stereo not drawn) | 157 to 159
O=C(NCc1cc(C(F)(F)F)cc(C(F)(F)F)c1)c1c(-c2ccccc2)c2cccnc2c(=O)n1CCCCO | 155 to 157
CCn1cc(C(=O)O)c(=O)c2cc(F)c(N3CCN(c4ncccn4)C(C)C3)c(OC(F)F)c21 (stereo not drawn) | 219 to 221
CC(C)(C)NCC(O)COc1ccc(C(=O)Nc2cccc3[nH]ccc23)cc1 (stereo not drawn) | 212
Cc1cc(NC(=O)Nc2ccc(N(CCCl)CCCl)cc2)c2ccccc2n1 | 128 to 129
CN(C)C=CC(=O)c1c[nH]c2ccccc12 | 239 to 245
O=C1COc2cc(S(=O)(=O)c3ccccc3)ccc2N1CC1=NCCN1 | 114 to 116
CC(=O)Oc1ccc(C(=O)O)cc1C | 169 to 171
O=CNC1Cc2cc(Br)ccc2N(C=O)C1 (stereo not drawn) | 174 to 178
N#CNC(=NCCN1CCC(C(=O)c2ccc(F)cc2)CC1)Oc1ccccc1 | 134 to 136
O=C(CCCCBr)NNC(=O)N1Cc2ccccc2Oc2ccc(Cl)cc21 | 147 to 149
FC(F)(F)c1ccccc1-c1n[nH]c(-c2ccccc2C(F)(F)F)n1 | 190 to 192

Compound | melting point [°C]
O=C(O)c1ncn2c1[C@@H]1CCN1C(=O)c1c(Br)cccc1-2 | 178 to 180
CC(=O)OCC1OC(n2cnc3c(NN4CCCCC4)nc(N)nc32)C(OC(C)=O)C1OC(C)=O (stereo not drawn) | 77 to 79
COc1ccc(OC)c(C=CC(=O)N(C)O)c1 | 111 to 112
CC(NC(=O)C(O)c1cc(F)cc(F)c1)C(=O)NC1N=C(c2ccccc2)c2ccccc2N(C)C1=O (stereo not drawn) | 128
O=C1c2c(O)ccc(O)c2-c2nn(CCCNCCO)c3ccc(NCCNCCO)c1c23 | 159 to 163
O=S(=O)(c1ccc2ccccc2c1)N1C[C@@H](S)C[C@@H]1COCc1ccccc1 | 79 to 80
CCOC(=O)C(C)Oc1ccc(-c2nc(-c3ccc(OC(C)C(=O)OCC)cc3O)nc(-c3c(C)cc(C)cc3C)n2)c(O)c1 (stereo not drawn) | 142 to 147
CCCCCCNC(=O)Oc1ccc2c(c1)CCCN2 | 100
Cc1c(C(=O)Nc2ccc(N3CCN(C4CCOCC4)CC3)c(C#N)c2)cnn1-c1ccc(Br)cc1 | 288
COCc1cccc2oc(C(=O)O)c(C)c12 | 164 to 166
FC(F)(F)c1cc(-c2ncn(CCCN3CCOCC3)c2-c2ccncc2)cc(C(F)(F)F)c1 | 136 to 138
CC(=O)NC[C@H]1CN(c2cc(F)c(N3CCC(n4cccc4)CC3)c(F)c2)C(=O)O1 | 186 to 188
O=C(C=Cc1ccc(O)cc1)N1CCc2c([nH]c3ccccc23)C1c1ccc2c(c1)OCO2 (stereo not drawn) | 175
CC(C)CCCC(C)C1CCC2C3=CC=C4CC(OC(=O)c5ccccc5)CC(OC(=O)c5ccccc5)C4(C)C3CCC21C (stereo not drawn) | 161
C=C1CC(Cn2cc(C)c(=O)[nH]c2=O)(c2ccc(-c3ccccc3)cc2)OC1=O (stereo not drawn) | 217 to 219
C=C(CN1C(=O)[C@H]2CCCN2C(=O)c2ccccc21)c1ccc(C(=O)Nc2ccccc2N)cc1 | 160 to 162
OC1Cc2ccc3ccccc3c21 (stereo not drawn) | 96 to 100
FC(F)(F)c1cccc(N2CCC(N=Cc3ccccn3)=N2)c1 | 156
Cc1nc2c(C=O)cccn2c1Br | 137 to 139
O=S1(=O)CCN(c2ccc(O)cc2)CC1 | 153 to 155
CC(=O)N[C@@H](C)COC1CCN(c2nc3ccc(OCC4CC4)cc3o2)CC1 | 120
CCOC(=O)c1cccc(Cc2c[nH]cn2)c1O | 133

Compound | melting point [°C]
CN(c1cc(=S)ss1)C1CCCCC1 | 107
O=C1c2ccc(C(F)(F)F)cc2CCC1CN1CCC2(CC1)C(=O)NCN2c1ccccc1 (stereo not drawn) | 159 to 162
C=CCO/N=C(/C(=O)OCC)c1ccc(OCCOc2ccc3ccccc3c2)s1 | 75 to 77
CC1C(C)(C)c2ccc(C(=O)CCC(=O)O)cc2C1(C)C (stereo not drawn) | 161
O=C(N1CCOCC1)C12CC(CN1)C2 | 97.5 to 98
CCC(=O)c1sc(Oc2ccc3c(c2)OCO3)c2c1CCc1cnn(C)c1-2 | 99 to 100
CS(=O)(=O)c1ccc(C(CC2CCCC2)C(=O)Nc2ccc3ccccc3n2)cc1Br (stereo not drawn) | 95 to 100
CCOC(=O)c1cn(C)c2cnc3cc(F)c(N4CCC(O)(c5cccc(C(F)(F)F)c5)CC4)cc3c2c1=O | 262
CC(=O)c1sc(N2CCN(CC3CC3)C2=O)nc1C | 103 to 104
NC(=O)COCCN1CCN(C(c2ccccc2)c2ccccc2)CC1 | 119 to 120
O=C(c1cccnc1)c1cnc2c(cnn2Cc2ccco2)c1O | 152 to 153
COC(=O)C1=C(C)OC(OC)(OC)CC1NC(C)=O (stereo not drawn) | 160 to 162
CCCCCCNc1nc(SC)[nH]c2nccc1-2 | 118
C=CCNc1nc(NC(=O)NCCCC)c2scc(C)c2n1 | 141
CC(C)(C)OC(=O)N1CCC(c2ccc(N3C[C@H](CN)OC3=O)cc2F)CC1 | 136 to 137
COc1cc(C=C2CCN(C(=O)NO)C2=O)cc(OC)c1O | 203 to 204
CC(C)N(CCCCOCC(=O)O)c1nc(-c2ccccc2)c(-c2ccccc2)nc1Cl | 136 to 138
CC(C)(C)C1OCCO1 | 86
CN(C)S(=O)(=O)n1c(C(F)(F)F)nc2c(Br)cc(C(F)(F)F)cc21 | 147
CC(C)(C)c1ccc(C(=O)Nc2cn3cc(-c4ccccc4)ccc3n2)cc1 | 252 to 253

The next lines start with the values.

melting point [°C] | Compound
127 to 128 | CCc1cccc2c(/C=C(/C)C(=O)O)cc(OC)c(O)c12
184 to 187 | CC1(C)OC(=O)Nc2ccc(-c3cc(CC#N)ccc3F)cc21
75 to 90 | Cc1noc(NS(=O)(=O)c2c(C(=O)c3ccc4c(c3)OCO4)sc3ncccc23)c1Cl
218 to 219 | O=C(C1CCN(c2ccncn2)CC1)N1CCN(S(=O)(=O)c2ccc3cc(Cl)ccc3c2)CC1
198 to 199 | O=C(O)c1cccc(-c2ccc3c(c2)N(Cc2cc(Cl)ccc2Cl)CC3)c1
243 | CN(C)CC(=O)Nc1cccc2c1C(=O)c1c-2n[nH]c1-c1ccc(N2CCNCC2)cc1
111 to 113 | O=C(c1ccccc1)c1c(Cl)cc(CBr)cc1Cl
76 | COc1cc(C(=O)c2cccnc2)ccc1OCc1ccccc1
113 | CCCCOc1cc(/C=C(\OCC)C(=O)O)ccc1OCCc1ccc(OS(C)(=O)=O)c(Cl)c1
220 to 223 | CCOC(=O)C1=C(C)NC(c2csc(NC(C)=O)n2)=NC1c1ccc(F)cc1Cl (stereo not drawn)
168 to 169 | COc1cc2c(cc1OC)C(Cc1ccncc1)(Cc1ccncc1)CN=C2c1ccccc1
266 to 268 | COc1cccc2c1C(=O)c1c(OC)cc(C#N)cc1C2=O
197 to 198 | COc1ccccc1NC(=O)Nc1ccc(CC(=O)NC(CC(C)C)c2ncc(CCC(=O)O)s2)cc1 (stereo not drawn)
73.5 | Cc1ccccc1Cc1ccc(Cl)nn1
186 to 187 | COC(=O)c1ccc(Cn2nc(-c3ccc(OC)cc3)c(-c3ccc(OC)cc3)cc2=O)cc1
197 to 199 | CCNC(=O)c1ccc(-c2ccc3nnn(Cc4cc5cccnc5cc4F)c3n2)cc1Cl
148 to 150 | CN(C)CCCNC(=O)c1ccc(-c2ccc3nnn(Cc4ccc5ncccc5c4)c3n2)cc1F

melting point [°C] | Compound
267 to 271 | COc1ccc(-c2c(-c3ccncc3)sc3nc(=O)cc(N)n23)cc1
135 | COc1ccc(Oc2cc(N)c(F)cc2C#N)cc1
147 to 150 | O=C(O)COc1cc(F)ccc1C(=S)NCc1cccc([N+](=O)[O-])c1
157 to 159 | CCCCc1nc2ccc(O)cc2c(=O)n1Cc1ccc(-c2ccccc2-c2nnnn2COC)cc1
56 to 58 | COc1ccc(Cc2cc(SC#N)ccc2OC)cn1
109 to 112 | O=C(CC(=O)c1cc(CN2CCOCC2)sc1Cl)NCc1ccc(Cl)cc1
228 to 232 | COc1ccc(CNc2n[nH]c3ncnc(Nc4cccc(Cl)c4)c23)cc1OC
190 to 191 | CN(C)C(=O)CC1CN=C(c2cc3cc(Oc4ccc(S(C)(=O)=O)nc4)ccc3[nH]2)S1 (stereo not drawn)
171 to 173 | Cc1ccc2c(c1)c(=O)c(CO)cn2C
139 to 140 | CNc1cnc2ccc(Cl)cc2c1-c1ccccc1
226 to 230 | CCN(CC)CCCNc1ncc2cc(-c3c(Br)cccc3Br)c(N)nc2n1
125 to 127 | O=S(=O)(On1nnc2ccc(Cl)cc21)c1ccc(Cl)cc1
98 to 99 | COc1ccc(C2OC(=O)NC2C)cc1OC (stereo not drawn)
176 to 177 | COc1ccc(N2CCN(Cc3cnc(Cc4ccc(OC)c(OC)c4)c4cc(OC)c(OC)cc34)CC2)cc1
162 | CCOc1nc2ccnn2c2ncccc12
189 to 190 | COc1ccc(CNn2c(=O)ccc3cnc(SC)nc32)cc1Cl
125 to 128 | Cc1nc(NCc2ccc(C)o2)c2nc(-c3ccccc3)cc-2[nH]1
